Patent US7645779B2, “Linked biaryl compounds” (Amgen Inc., priority 2001, dated 2010)

test system: High Cholesterol Fed Rats; assay: HDL Cholesterol Assay in High Cholesterol Fed Rats; format: in vivo, Male Sprague-Dawley rats; conditions: Rattus norvegicus, 168 h, oral once a day over the final 7 days of a 14-day high cholesterol diet, HDL increase relative to the vehicle, read-out: Serum HDL cholesterol levels (% of increase) at 30 mg/kg
Experimental: HDL Cholesterol Assay in High Cholesterol Fed Rats
Male Sprague-Dawley rats (BW: 100-120 g) were fed a high cholesterol diet (1.25% cholesterol, 0.5% cholic acid and 10% coconut oil) for 14 days. The animals were orally dosed with test compounds suspended to 0.5% methylcellulose solution once a day over the final 7 days. Typical doses of test compounds were 1-30 mg/kg/day.
After 7 days of treatment, serum HDL cholesterol concentration was determined from blood obtained by tail bleeds. HDL cholesterol determination was performed on a Hitachi 7170 automatic analyzer.
Serum HDL cholesterol level (% of increase) refers to the rate of HDL increase relative to the vehicle and was calculated as follows: […]

Cc1cc(Sc2ccc(OCc3ccc(C(F)(F)F)cc3)c(C)c2)ccc1OCC(=O)O [Compound 1, {2-methyl-4-[3-methyl-4-(4-trifluoromethyl-benzyloxy)-phenylsulfanyl]-phenoxy}-acetic acid] and CCCc1cc(Sc2ccc(OCc3ccc(C(F)(F)F)cc3)c(C)c2)ccc1OCC(=O)O [Compound 4, 4-[[3-methyl-4-(4-trifluoromethyl-benzyloxy)phenyl]sulfanyl]-2-propylphenoxy-acetic acid] cannot be ordered by change in vivo at 30 mg/kg: greater than 100% for the first, greater than 100% for the second.

Cc1cc(S(=O)(=O)c2ccc(OCc3ccc(C(F)(F)F)cc3)cc2C)ccc1OCC(=O)O [Compound 5, 4-[[2-methyl-4-(4-trifluoromethyl-benzyloxy)phenyl]sulfonyl]-2-methylphenoxy-acetic acid] and Cc1cc(Sc2ccc(COc3ccc(C(F)(F)F)cc3)cc2)ccc1OCC(=O)O [Compound 7, 4-[[4-[(4-trifluoromethylphenoxy)methyl]phenyl]sulfanyl]-2-methylphenoxy-acetic acid] cannot be ordered by change in vivo at 30 mg/kg: no more than 100% for the first, no more than 100% for the second.

Cc1cc(Sc2ccc(OCc3ccc(C(F)(F)F)cc3)cc2)ccc1OCC(=O)O [Compound 8] and Cc1cc(Sc2ccc(COc3ccc(C(F)(F)F)cc3)cc2Cl)ccc1OCC(=O)O [Compound 10, 4-[[2-chloro-4-[(4-trifluoromethylphenoxy)methyl]phenyl]sulfanyl]-2-methylphenoxy-acetic acid] cannot be ordered by change in vivo at 30 mg/kg: greater than 100% for the first, no more than 100% for the second.

Cc1cc(Sc2ccc(OCC(=O)O)c3ccccc23)ccc1OCc1ccc(C(F)(F)F)cc1 [Compound 9] and Cc1cc(COc2ccc(C(F)(F)F)cc2)ccc1Sc1ccc(OCC(=O)O)cc1C [Compound 11] cannot be ordered by change in vivo at 30 mg/kg: no more than 100% for the first, greater than 100% for the second.

Cc1cc(Sc2ccc(CNc3ccc(C(F)(F)F)cc3)cc2C)c(C)cc1OCC(=O)O [Compound 21, 2,5-dimethyl-4-[[2-methyl-4-[(4-trifluoromethyl-phenylamino)methyl]phenyl]sulfanyl]phenoxy-acetic acid] and O=C(O)COc1ccc(Sc2ccc(CNc3ccc(C(F)(F)F)cc3)cc2Cl)c2c1CCCC2 [Compound 22, (4-{2-chloro-4-[(4-trifluoromethyl-phenylamino)-methyl]-phenylsulfanyl}-5,6,7,8-tetrahydro-naphthalen-1-yloxy)-acetic acid] cannot be ordered by change in vivo at 30 mg/kg: greater than 100% for the first, no more than 100% for the second.
